Assay [1] has as its target T1, Carbonic anhydrase (Candida glabrata CBS 138, UniProt Q6FTL6).
T1 sequence (Q6FTL6 whole entry): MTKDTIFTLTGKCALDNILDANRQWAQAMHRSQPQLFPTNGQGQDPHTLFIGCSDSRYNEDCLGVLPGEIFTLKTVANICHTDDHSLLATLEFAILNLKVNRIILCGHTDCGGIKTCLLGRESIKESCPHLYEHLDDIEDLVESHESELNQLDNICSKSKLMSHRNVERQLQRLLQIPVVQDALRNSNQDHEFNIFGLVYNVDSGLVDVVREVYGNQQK
Also on record: species or system Nakaseomyces glabratus.

Assay [2] deals with T2, Carbonic anhydrase (Candida albicans (strain SC5314 / ATCC MYA-2876) (Yeast), UniProt Q5AJ71).
T2 sequence (Q5AJ71 whole entry): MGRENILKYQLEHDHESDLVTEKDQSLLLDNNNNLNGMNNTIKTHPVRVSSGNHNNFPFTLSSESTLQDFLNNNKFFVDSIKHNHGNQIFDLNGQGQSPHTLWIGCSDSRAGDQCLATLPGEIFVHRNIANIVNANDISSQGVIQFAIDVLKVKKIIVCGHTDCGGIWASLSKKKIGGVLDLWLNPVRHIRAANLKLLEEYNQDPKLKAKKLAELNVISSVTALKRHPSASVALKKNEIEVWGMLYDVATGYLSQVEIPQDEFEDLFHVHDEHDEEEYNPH

The target of another assay is Carbonic anhydrase 2 (Homo sapiens, UniProt P00918). Nature of the assay: Inhibition of human carbonic anhydrase-2 preincubated for 15 mins by stopped-flow CO2 hydrase assay.
Assay [3] can be described thus: Selectivity ratio of Ki for human carbonic anhydrase-2 to Ki for recombinant full length Candida glabrata NCE103.

As for `NS(=O)(=O)Oc1ccc(NC(=O)NCCc2ccccc2)cc1`, the Ki at Carbonic anhydrase [1] (read-out: Ki) was determined as 7.5 nM; on Carbonic anhydrase [2], 133 nM. As for `NS(=O)(=O)c1ccc(S(=O)(=O)Nc2cccc3c(Cl)c[nH]c23)cc1`, the Ki at Carbonic anhydrase [1] (read-out: Ki) was found to be 94 nM.

For the molecule `NS(=O)(=O)Oc1ccc(NC(=O)Nc2ccccc2)cc1`, on Carbonic anhydrase [1] (read-out: Ki), the Ki turned out to be 9.6 nM. Turning to `NS(=O)(=O)c1ccc(NC(=O)Nc2ccc(Br)cc2)cc1`, the Ki at Carbonic anhydrase [1] (read-out: Ki) was 5.4 nM. On to `NS(=O)(=O)Oc1ccc(NC(=O)Nc2ccc(Cl)cc2)cc1`, for which the Ki on Carbonic anhydrase [1] (read-out: Ki) worked out at 9.4 nM; at Carbonic anhydrase [2] it was 505 nM.

On to `Nc1ccc(S(N)(=O)=O)cc1` [SULFANILAMIDE], for which, at Carbonic anhydrase [1] (read-out: Ki), the Ki amounted to 8010 nM.

Consider `Cn1nc(S(N)(=O)=O)sc1=N`, for which the Ki on Carbonic anhydrase [1] (read-out: Ki) was 786 nM.

As to `CC(C)c1ccccc1NC(=O)Nc1ccc(NS(N)(=O)=O)cc1`, the Ki at Carbonic anhydrase [1] (read-out: Ki) was 33.8 nM; on Carbonic anhydrase [2], 55 nM. With `NS(=O)(=O)c1ccc(NC(=O)Nc2cccc([N+](=O)[O-])c2)cc1`, at Carbonic anhydrase [1] (read-out: Ki), the Ki was found to be 6.1 nM. In the case of `NS(=O)(=O)Oc1ccc(NC(=O)Nc2cccc(Cl)c2)cc1`, the Ki on Carbonic anhydrase [1] (read-out: Ki) was 89 nM; at Carbonic anhydrase [2], 124 nM. Turning to `Nc1nccc(Nc2ccc(S(N)(=O)=O)cc2)n1`, the Ki on Carbonic anhydrase [1] (read-out: Ki) amounted to 83 nM.

As for `NS(=O)(=O)c1ccc(CCO)cc1`, the inhibition constant (Ki) at Carbonic anhydrase [1] (read-out: Ki) came out at 48 nM. As for `Nc1cc(Cl)c(S(N)(=O)=O)cc1S(N)(=O)=O`, on Carbonic anhydrase [1] (read-out: Ki), the Ki turned out to be 86 nM. Regarding `NS(=O)(=O)Nc1ccc(NC(=O)NCc2ccco2)cc1`, the figures for the Ki at Carbonic anhydrase [1] (read-out: Ki) and on Carbonic anhydrase [2] were 24.1 nM and 58 nM, respectively. `NS(=O)(=O)c1ccc(NC(=O)NCc2ccccc2)cc1`: the Ki on Carbonic anhydrase [1] (read-out: Ki) was 81 nM. As for `NS(=O)(=O)Oc1ccc(NC(=O)Nc2cccc3ccccc23)cc1`, the values for the Ki at Carbonic anhydrase [1] (read-out: Ki) and at Carbonic anhydrase [2] were 89 nM and 1430 nM, respectively. On to `NS(=O)(=O)Oc1ccc(NC(=O)Nc2ccc(C(F)(F)F)c(C(F)(F)F)c2C(F)(F)F)cc1`, for which the Ki on Carbonic anhydrase [1] (read-out: Ki) was found to be 5.8 nM; at Carbonic anhydrase [2], 76 nM. As to `NS(=O)(=O)Nc1ccc(NC(=O)NCCc2ccccc2)cc1`, the Ki on Carbonic anhydrase [1] (read-out: Ki) worked out at 15.1 nM; on Carbonic anhydrase [2], 130 nM. As for `Nc1ccc(S(N)(=O)=O)cc1Cl`, on Carbonic anhydrase [1] (read-out: Ki), the Ki is 97 nM.

Regarding `NS(=O)(=O)Nc1ccc(NC(=O)Nc2cccc([N+](=O)[O-])c2)cc1`, the Ki at Carbonic anhydrase [1] (read-out: Ki) is 4.1 nM; on Carbonic anhydrase [2] it was 109 nM. For `Nc1nnc(S(N)(=O)=O)s1`, at Carbonic anhydrase [1] (read-out: Ki), the Ki was 95 nM. With `Nc1ccc(S(N)(=O)=O)cc1F`, the Ki at Carbonic anhydrase [1] (read-out: Ki) was 98 nM. As to `NS(=O)(=O)c1ccc(NC(=O)Nc2ccccc2)cc1`, the inhibition constant Ki at Carbonic anhydrase [1] (read-out: Ki) was 73 nM. With `CCCCOc1ccc(NC(=O)Nc2ccc(NS(N)(=O)=O)cc2)cc1`, the Ki on Carbonic anhydrase [1] (read-out: Ki) was 13.9 nM; on Carbonic anhydrase [2], 135 nM. `Cc1ccc(-c2cc(C(F)(F)F)nn2-c2ccc(S(N)(=O)=O)cc2)cc1` [CELECOXIB]: the Ki on Carbonic anhydrase [1] (read-out: Ki) was determined as 116 nM. As to `NS(=O)(=O)c1nnc(-c2ccccc2Cl)s1`, on Carbonic anhydrase [1] (read-out: Ki), the Ki is 420 nM. For the molecule `N#Cc1ccccc1NC(=O)Nc1ccc(OS(N)(=O)=O)cc1`, the figures for the Ki at Carbonic anhydrase [1] (read-out: Ki) and on Carbonic anhydrase [2] were 89 nM and 156 nM, respectively. On to `NS(=O)(=O)Oc1ccc(NC(=O)Nc2c(F)cc(F)cc2Br)cc1`, for which the values for the Ki on Carbonic anhydrase [1] (read-out: Ki) and on Carbonic anhydrase [2] were 5 nM and 84 nM, respectively. As for `CC1(C)O[C@@H]2[C@@H](CO[C@@]3(COS(N)(=O)=O)OC(C)(C)O[C@@H]23)O1` [TOPIRAMATE], at Carbonic anhydrase [1] (read-out: Ki), the Ki was determined as 110 nM.

The molecule `Nc1ccc(S(N)(=O)=O)cc1I` registered a Ki at Carbonic anhydrase [1] of 128 nM. Regarding `CCN[C@H]1CN(CCCOC)S(=O)(=O)c2sc(S(N)(=O)=O)cc21` [BRINZOLAMIDE], the Ki at Carbonic anhydrase [1] (read-out: Ki) turned out to be 4350 nM. Turning to `Cc1ccc(S(N)(=O)=O)cc1` [P-TOLUENESULFONAMIDE], on Carbonic anhydrase [1] (read-out: Ki), the Ki worked out at 846 nM. For `NS(=O)(=O)Nc1ccc(NC(=O)Nc2ccccc2-c2ccccc2)cc1`, the Ki at Carbonic anhydrase [1] (read-out: Ki) came out at 6.7 nM; on Carbonic anhydrase [2], 72 nM. Turning to `NCc1ccc(S(N)(=O)=O)cc1` [MAFENIDE], the Ki at Carbonic anhydrase [1] (read-out: Ki) worked out at 865 nM. For `NS(=O)(=O)c1ccc(C(=O)O)cc1` [CARZENIDE], the Ki at Carbonic anhydrase [1] (read-out: Ki) turned out to be 53 nM.

`NS(=O)(=O)c1ccc(NC(=O)NCCc2ccccc2)cc1`: the Ki at Carbonic anhydrase [1] (read-out: Ki) came out at 56 nM; on Carbonic anhydrase 2 it was 660 nM; at Carbonic anhydrase [2], 124 nM. Turning to `Nc1ccc(S(N)(=O)=O)cc1Br`, on Carbonic anhydrase [1] (read-out: Ki), the Ki is 109 nM. Regarding `NS(=O)(=O)Oc1ccc(NC(=O)Nc2ccc([N+](=O)[O-])cc2)cc1`, the Ki was 6.4 nM on Carbonic anhydrase [1] (read-out: Ki) and 106 nM on Carbonic anhydrase [2]. `NS(=O)(=O)c1nnc(NS(=O)(=O)c2ccccc2)s1` [BENZOLAMIDE]: at Carbonic anhydrase [1] (read-out: Ki), the inhibition constant Ki was 952 nM. Regarding `Cc1cc(C)cc(NC(=O)Nc2ccc(NS(N)(=O)=O)cc2)c1`, the Ki is 8.5 nM at Carbonic anhydrase [1] (read-out: Ki) and 139 nM at Carbonic anhydrase [2]. Turning to `NS(=O)(=O)Nc1ccc(NC(=O)NC2CCCCC2)cc1`, the Ki is 80.1 nM on Carbonic anhydrase [1] (read-out: Ki) and 134 nM at Carbonic anhydrase [2].

With `NS(=O)(=O)Nc1ccc(NC(=O)NCc2ccccc2)cc1`, the Ki on Carbonic anhydrase [1] (read-out: Ki) turned out to be 24.3 nM; at Carbonic anhydrase [2] it was 146 nM. Consider `Nc1ccc(S(=O)(=O)NCCc2ccc(S(N)(=O)=O)cc2)cc1`, for which the Ki on Carbonic anhydrase [1] (read-out: Ki) was 98 nM. The same measure, in the same setting: the result for `NCCc1ccc(S(N)(=O)=O)cc1` reads 550 nM. For the molecule `Nc1cc(C(F)(F)F)c(S(N)(=O)=O)cc1S(N)(=O)=O`, the Ki at Carbonic anhydrase [1] (read-out: Ki) stood at 97 nM.

With `NS(=O)(=O)c1ccc(NC(=O)Nc2ccc(Cl)cc2)cc1`, the Ki at Carbonic anhydrase [1] (read-out: Ki) worked out at 7 nM. On the same count and under the same terms, the result for `Nc1ccc(S(=O)(=O)Nc2nnc(S(N)(=O)=O)s2)cc1` reads 106 nM. With `NS(=O)(=O)Nc1ccc(NC(=O)Nc2ccc(Cl)cc2)cc1`, the Ratio Ki in assay [3] worked out at 57. Further, the Ki was found to be 5.5 nM at Carbonic anhydrase [1] (read-out: Ki) and 102 nM at Carbonic anhydrase [2]. Regarding `Cc1onc(-c2ccccc2)c1-c1ccc(S(N)(=O)=O)cc1` [VALDECOXIB], on Carbonic anhydrase [1] (read-out: Ki), the Ki worked out at 97 nM. `CCOc1ccc2nc(S(N)(=O)=O)sc2c1` [ETHOXZOLAMIDE]: the Ki on Carbonic anhydrase [1] (read-out: Ki) was determined as 3130 nM. For `NS(=O)(=O)c1ccc(CO)cc1`, on Carbonic anhydrase [1] (read-out: Ki), the Ki worked out at 61 nM. As to `NS(=O)(=O)Oc1ccc(NC(=O)NCc2ccccc2)cc1`, the Ki at Carbonic anhydrase [1] (read-out: Ki) is 8.4 nM; on Carbonic anhydrase 2, 274 nM; on Carbonic anhydrase [2] it was 137 nM. Consider `NS(=O)(=O)Oc1ccc(NC(=O)Nc2ccc3c(c2)Cc2ccccc2-3)cc1`, for which the Ki on Carbonic anhydrase [1] (read-out: Ki) came out at 115 nM; at Carbonic anhydrase [2] it was 76 nM.

`Nc1ccc(S(=O)(=O)NCc2ccc(S(N)(=O)=O)cc2)cc1`: the Ki on Carbonic anhydrase [1] (read-out: Ki) is 108 nM.

What is called Ki is the dissociation constant of the complex between target and ligand, obtained from inhibition or displacement.

The record behind these values is ChEMBL document CHEMBL2375327, “Carbonic anhydrase inhibitors: inhibition of the β-class enzyme from the pathogenic yeast Candida glabrata with sulfonamides, sulfamates and sulfamides” (Bioorg Med Chem Lett, 2013).
